Results reported in paper PMC9960827, “Cloning and Characterization of Trypanosoma congolense and T. vivax Nucleoside Transporters Reveal the Potential of P1-Type Carriers for the Discovery of Broad-Spectrum Nucleoside-Based Therapeutics against Animal African Trypanosomiasis” (International Journal of Molecular Sciences, 2023).
Where two headings read alike, the source gives them in different places. Marks after values point to notes of the source that are not given here.

Legend:
T.b.b. B48 = experiment: Alamar Blue (resazurin) assay, T. b. brucei B48; assay type: cell-based, Trypanosoma brucei brucei; settings: multidrug-resistant strain, resazurin; read-out: T.b.b. B48 EC50
Procedure: (§1) EC50 values were determined by plotting to an equation for a sigmoid curve with variable slope (GraphPad Prism 8). All values were the average of at least three independent determinations on different days.

[1] = system: human embryonic kidney (HEK) cells; experiment: Resazurin toxicity assay on human embryonic kidney cells; assay type: cell-based; settings: for SI T. congolense: selectivity index = EC50 (HEK cells)/EC50 (T. congolense); for SI T. equiperdum: selectivity index = EC50 (HEK cells)/EC50 (T. equiperdum); for SI T. evansi: selectivity index = EC50 (HEK cells)/EC50 (T. evansi)
Procedure: as §1

T. evansi = experiment: Alamar Blue (resazurin) assay, T. evansi; assay type: cell-based, Trypanosoma evansi; settings: resazurin; read-out: T. evansi EC50
Procedure: as §1

T. vivax [2] = system: T. vivax; design: method as in Mabille et al. [69]; settings: added for comparison only; ref Mabille et al. [69]; cited from earlier work
T. congolense 6C3 [3] = experiment: microbe, parasite or virus in culture; assay type: cell-based, Trypanosoma congolense; settings: for EC50: diminazene resistant strain, resazurin, read-out: T. congolense 6C3 EC50; for T. congolense 6C3 RF: resistance factor = EC50 (test strain)/EC50(control strain)
Procedure: as §1

T. congolense IL3000 [4] = experiment: Alamar Blue (resazurin) assay, T. congolense IL3000; assay type: cell-based, Trypanosoma congolense; settings: BSF, resazurin; read-out: T. congolense IL3000 EC50
Procedure: as §1

T. equiperdum = experiment: Alamar Blue (resazurin) assay, T. equiperdum; assay type: cell-based, Trypanosoma equiperdum; settings: resazurin; read-out: T. equiperdum EC50
Procedure: as §1

L. mexicana Cas9 = experiment: Resazurin drug sensitivity assay, LmexCas9; assay type: cell-based, Leishmania mexicana; settings: resazurin, promastigotes; read-out: LmexCas9 EC50
Procedure: as §1

T. congolense IL3000 [5] = system: T. congolense IL3000; design: method as in Hulpia et al. [38]; settings: values marked *; ref Hulpia et al. [38]; cited from earlier work
L. mexicana SUPKO = experiment: microbe, parasite or virus in culture; assay type: cell-based, Leishmania mexicana; settings: for EC50: resazurin, promastigotes, read-out: SUPKO EC50; for SUPKO RF (Cas9): Resistance Factor = EC50(SUPKO)/EC50(Cas9)
Procedure: as §1

L. mexicana SUPKO+TvxNT3 = experiment: microbe, parasite or virus in culture; assay type: cell-based, Leishmania mexicana; settings: for EC50: resazurin, promastigotes, read-out: SUPKO+TvxNT3 EC50; for SUPKO+TvxNT3 RF (SUPKO): Resistance Factor relative to SUPKO
Procedure: as §1

L. mexicana SUPKO+TcoAT1 = experiment: microbe, parasite or virus in culture; assay type: cell-based, Leishmania mexicana; settings: for EC50: resazurin, promastigotes, read-out: SUPKO+TcoAT1 EC50; for SUPKO+TcoAT1 RF (SUPKO): Resistance Factor relative to SUPKO
Procedure: as §1

T. congolense 6C3 [6] = system: T. congolense 6C3; design: method as in Hulpia et al. [38]; settings: values marked *; ref Hulpia et al. [38]; cited from earlier work
T. vivax [7] = experiment: T. vivax EC50 (from Mabille et al.); assay type: cell-based, Trypanosoma vivax; settings: from Table 8 data
TcoAT1 = assay type: cell-based, Trypanosoma congolense; settings: 0.05 µM [3H]-adenosine, 10 s; IC50 converted to Ki; read-out: Ki on the transport of [3H]-adenosine
Description: The information for the T. congolense adenosine transporter (TcoAT1) and four putative T. vivax nucleoside transporters was obtained in the TritrypDB (tritrypdb.org/tritrypdb) genome database. Primers were designed to flank each gene upstream of the 5′ end (forward) and downstream of the 3′ end (reverse) as described (primer sequences in Supplementary Table S2). Following amplification from the genomic DNA of T. congolense or T. vivax, DNA for each extracted gene was ligated into the pNUS-HcN expression vector doubly digested with NdeI using the NEBuilder kit according to the manufacturer’s instructions (New England Biolabs). Construct was transformed into competent E. coli cells, and ligation was confirmed by restriction enzyme digestion of isolated plasmid DNA followed by Sanger sequencing (Source BioScience, Nottingham, UK). Confirmed plasmids were then transfected into L. mexicana cell line in which both NT1 and NT2 were doubly knocked out (SUPKO) and derived from L. mexicana Cas9 [64] as described. Clones grown in medium containing 50 μg/mL neomycin (G418) were collected for further confirmation by PCR with genomic DNA using a forward primer of the transporter gene and a reverse primer of the plasmid.
(§2) Uptake assays using radiolabeled trypanocides and/or nucleosides were carried out as described previously. Briefly, parasite cultures were harvested, washed twice in assay buffer (33 mM HEPES, 98 mM NaCl, 4.6 mM KCl, 0.5 mM CaCl2, 0.07 mM MgSO4, 5.8 mM NaH3PO4, 0.03 mM MgCl2, 23 mM NaHCO3, 14 mM D-glucose, pH 7.3), then resuspended and adjusted to a density of 1 × 10^8 cells/mL in assay buffer. The radiolabeled permeant in the presence or absence of different concentrations of potential inhibitors reconstituted in 100 μL assay buffer was deposited on top of 250 μL oil mix in microcentrifuge tubes; 1 × 10^7 parasites in 100 μL assay buffer were added to the tube and incubated for a pre-determined interval. The reaction was stopped by the addition of 1 mL of a high concentration of ice-cold unlabeled substrate in assay buffer (‘stop solution’) and centrifugation, or by immediate centrifugation at […] as appropriate. The microcentrifuge tubes were flash-frozen, and the bottom of each tube containing the cell pellet was cut off and transferred to a scintillation vial. Cell pellets were lysed in 2% SDS, after which scintillation fluid (Scintlogic U, Lablogic) was added, followed by overnight incubation in the dark. Scintillation was measured in a 300SL (Hidex) scintillation counter (Hidex). All the assays were conducted in triplicate and analysis was carried out using Microsoft Excel and GraphPad Prism. All kinetic parameters were obtained on at least 3 separate occasions.
(§3) The dose-dependent uptake assay allowed for the affinity of nucleoside analogs to different nucleoside transporters to be determined by measuring the extent to which the analogs compete with and inhibit the uptake of radiolabel adenosine. This allowed for the determination of biochemical parameters such as Km and Vmax through the application of the Michaelis–Menten equation V0 = Vmax([substrate]/([substrate] + Km)). The 50% Inhibitory Concentration (IC50) of the purines and pyrimidines and their analogs was determined from non-linear regression to sigmoid curves with variable slope (Prism 8), and the IC50 of the inhibitor and the Km of the labeled permeant were then used to calculate the inhibition constant (Ki) of the analogs through the Cheng–Prusoff equation: Ki = IC50/(1 + (L/Km)), where L denotes the radiolabel concentration. The calculated Ki was in turn used to determine the Gibbs free energy (ΔG^0) of the inhibitor–transporter interaction using the equation: ΔG^0 = -RTln(Ki), where R represents the gas constant and T symbolizes the absolute temperature in Kelvin [104].

[8] = target: T. congolense adenosine transporter; experiment: [3H]-adenosine uptake and its inhibition in T. congolense IL3000 bloodstream forms; assay type: cell-based, Trypanosoma congolense
Procedure: as §2, §3

[9] = resazurin, 96 well plates, read-out: HEK EC50

| Compound | EC50 (T.b.b. B48) [nM] | EC50 [1, 9] [nM] | SI T. congolense [1] | SI T. equiperdum [1] | EC50 (T. evansi) [nM] | EC50 (T. vivax [2]) [nM] | EC50 (T. congolense 6C3 [3]) [nM] | T. congolense 6C3 RF (T. congolense 6C3 [3]) | EC50 (T. congolense IL3000 [4]) [nM] | EC50 (T. equiperdum) [nM] | EC50 (L. mexicana Cas9) [nM] | EC50 (L. mexicana SUPKO) [nM] | EC50 (L. mexicana SUPKO+TvxNT3) [nM] | EC50 (L. mexicana SUPKO+TcoAT1) [nM] | EC50 [1] [nM] | SI T. evansi [1] | SUPKO RF (Cas9) (L. mexicana SUPKO) | SUPKO+TvxNT3 RF (SUPKO) (L. mexicana SUPKO+TvxNT3) | SUPKO+TcoAT1 RF (SUPKO) (L. mexicana SUPKO+TcoAT1) | other results |
| --- | --- | --- | --- | --- | --- | --- | --- | --- | --- | --- | --- | --- | --- | --- | --- | --- | --- | --- | --- | --- |
| Nc1ncnc2c1ccn2[C@H]1C[C@H](O)[C@@H](CO)O1 [FH10677] | 38000 ± 2300 | > 200000 | >4.6 | >12 | > 100000 | > 64000 | 10900 ± 2300 | 0.25 | 43300 ± 14500 | 17400 ± 2300 |  |  |  |  |  |  |  |  |  |  |
| CC(C)Oc1ncnc2c1c(Cl)cn2[C@@H]1O[C@H](CO)[C@@H](O)[C@H]1O [FH9531] |  |  |  |  |  | 120 ± 10 |  | 0.80 |  |  | > 100000 | > 100000 | > 100000 | > 100000 |  |  |  |  |  | EC50 (T. congolense IL3000 [5]): 4040 ± 360 nM; EC50 (T. congolense 6C3 [6]): 3230 ± 360 nM |
| C#Cc1cn([C@@H]2O[C@H](CO)C[C@H]2O)c2ncnc(N)c12 [FH8505] | 31 ± 4 |  | 68 | 446 | 7.8 ± 2 | 160 ± 10 | 8 ± 2 | 0.46 ^a | 17 ± 2 | 2.6 ± 0.8 | 92700 ± 4300 | > 100000 | 80000 ± 7700 | 89900 ± 12500 | 1170 ± 60 | 151 | >1.08 | >1.25 | >1.1 | fold higher EC50 against T. vivax compared to T. congolense (T. vivax [7]): 10–165 fold |
| Nc1ncnc2c1c(I)cn2[C@@H]1O[C@H](CO)C[C@H]1O [FH8496] | 24 ± 2 |  | 902 | 3260 | 3.7 ± 1.2 | 56 ± 1 | 3 ± 0.2 | 0.56 | 5.4 ± 1 | 1.5 ± 0.5 | 51800 ± 10300 | 52600 | 40000 ± 9200 | 23900 ± 5600 | 4910 ± 30 | 1340 | 1.01 | >1.2 | >2.2 | Ki (TcoAT1): 135000 ± 11000 nM; Ki ([8]; 0.05 µM [3H]-adenosine, 30 s, IC50 converted to Ki, read-out: Ki on the transport of [3H]-adenosine): 46200 ± 1700 nM; ΔG0, Gibbs free energy of interaction ([8]; calculated from Km or Ki): -5.9 kcal/mol |
| Nc1ncnc2c1c(Br)cn2[C@@H]1O[C@H](CO)[C@@H](O)[C@H]1O [TH1003] | 1400 ± 90 | 2370 ± 120 | 3.0 | 28 | 480 ± 60 | 740 ± 40 | 520 ± 31 | 0.66 | 790 ± 140 | 85 ± 26 | 2430 ± 140 | > 100000 | > 100000 | 71100 ± 5000 |  | 4.9 | >41.2 |  | >1.4 |  |
